Data as given in patent US20150183743A1, “COMPOUND AND USE OF COMPOUND TO PREPARE A RADIOLABELLED COMPOUND” (STICHTING VU-VUMC, priority 2012, published 2015).
Counter-ions that a name gives are not always drawn.

Assays:
[1] = molecular target: T1, ifenprodil binding site of NR2B subunit containing NMDA receptors (Rattus norvegicus, UniProt P35439+Q00960); assay: Competition binding assay against [3H]ifenprodil on rat forebrain membranes; settings: displacement of 5 nM [3H]ifenprodil; mean±SEM of 2-6 determinations in triplicate
T1 construct: 400 μl of the membrane suspension, containing a total amount of 2.5 mg original wet weight of tissue; from tissue; host or cells: rat forebrain membranes
T1 sequence (Q00960 27-1482, other chains not shown): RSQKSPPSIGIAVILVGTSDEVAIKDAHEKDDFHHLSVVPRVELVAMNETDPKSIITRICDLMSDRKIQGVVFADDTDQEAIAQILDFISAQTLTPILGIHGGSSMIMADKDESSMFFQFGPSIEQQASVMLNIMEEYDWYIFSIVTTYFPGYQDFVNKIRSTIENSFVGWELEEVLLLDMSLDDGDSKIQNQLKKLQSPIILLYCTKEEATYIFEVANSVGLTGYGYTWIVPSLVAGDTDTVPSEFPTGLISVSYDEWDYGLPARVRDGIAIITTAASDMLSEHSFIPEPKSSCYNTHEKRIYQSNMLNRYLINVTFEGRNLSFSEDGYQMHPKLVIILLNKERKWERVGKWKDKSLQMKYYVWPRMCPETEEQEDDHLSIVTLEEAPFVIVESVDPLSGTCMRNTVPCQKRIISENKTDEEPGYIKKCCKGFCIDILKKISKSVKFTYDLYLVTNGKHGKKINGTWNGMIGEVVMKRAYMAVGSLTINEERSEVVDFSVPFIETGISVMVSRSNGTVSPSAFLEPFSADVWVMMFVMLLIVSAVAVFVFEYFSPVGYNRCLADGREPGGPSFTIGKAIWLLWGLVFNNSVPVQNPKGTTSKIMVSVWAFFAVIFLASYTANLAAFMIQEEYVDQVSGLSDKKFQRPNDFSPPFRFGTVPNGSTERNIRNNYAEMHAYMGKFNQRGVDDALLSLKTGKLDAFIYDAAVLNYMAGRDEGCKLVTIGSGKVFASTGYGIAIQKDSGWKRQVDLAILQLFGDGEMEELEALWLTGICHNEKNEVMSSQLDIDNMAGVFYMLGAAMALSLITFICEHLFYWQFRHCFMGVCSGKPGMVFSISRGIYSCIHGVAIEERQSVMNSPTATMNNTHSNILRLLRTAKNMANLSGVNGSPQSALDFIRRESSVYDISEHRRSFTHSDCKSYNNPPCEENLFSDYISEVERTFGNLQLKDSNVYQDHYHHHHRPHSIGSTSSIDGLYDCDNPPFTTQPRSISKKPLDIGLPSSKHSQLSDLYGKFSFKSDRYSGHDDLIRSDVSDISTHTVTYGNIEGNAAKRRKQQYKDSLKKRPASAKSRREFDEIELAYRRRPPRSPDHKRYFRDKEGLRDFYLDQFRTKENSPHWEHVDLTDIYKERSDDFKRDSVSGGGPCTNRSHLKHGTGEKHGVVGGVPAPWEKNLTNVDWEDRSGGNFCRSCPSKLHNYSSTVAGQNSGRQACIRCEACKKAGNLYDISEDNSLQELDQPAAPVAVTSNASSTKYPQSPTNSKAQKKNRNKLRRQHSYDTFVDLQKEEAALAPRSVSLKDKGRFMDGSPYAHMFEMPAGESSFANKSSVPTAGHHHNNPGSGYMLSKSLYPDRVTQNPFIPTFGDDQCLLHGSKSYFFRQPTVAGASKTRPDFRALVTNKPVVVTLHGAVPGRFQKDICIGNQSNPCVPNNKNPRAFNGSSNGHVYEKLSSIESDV
Procedure: Male Wistar rats (180-200 g) were killed by decapitation. The forebrains were rapidly removed and homogenized using a DUALL tissue homogenizer (10 strokes, 2000 rpm), in a 10-fold excess (v/w) of ice-cold 0.25 M sucrose. The nuclei and cell debris were removed by centrifugation (10 min×400×g), in a Beckman refrigerated ultracentrifuge (rotor 60Ti). The resulting pellet was rehomogenized in 5 vol 0.25 sucrose and recentrifuged. The combined supernatants were diluted in Tris-acetate buffer (50 mM, pH 7.4) to a final dilution of 40 v/w, and centrifuged for 30 min×200,000×g, in order to obtain membranes from the cell surface, mitochondrial, and microsomal fractions. The pellet was resuspended in 20 volumes of Tris-HCl+0.01% Triton buffer (pH 7.4), kept at 37° C. for 10 min, and recentrifuged. The final pellet was suspended in Tris-HCl buffer (dilution 5, pH 7.4), and stored at −80° C. in 5 ml aliquots. On the day of each experiment, membranes were thawed to room temperature and washed twice by centrifugation (30 min×200,000×g). After the final centrifugation, pellets were suspended in 80 volumes (v/w) of 50 mM Tris-HCl buffer (pH 7.4).
Competition binding experiments were carried out on ice, in a final volume of 500 μl assay buffer (50 mM Tris-HCl, pH 7.4), containing 5 μM GBR 12909 to block […] binding. The incubation mixture was composed of 400 μl of the membrane suspension, containing a total amount of 2.5 mg original wet weight of tissue, 50 μl of [^3H]ifenprodil, and 5 μl of unlabelled drug solution (final DMSO concentration: 1%). Nonspecific binding was determined in the presence of 10 μM Ro 25-6981. Incubations were terminated after 2 hr by filtration through 0.3% PEI-embedded Whatman GF/B filters, using a 48-well Brandel harvester. The filters were washed three times with 3 ml of ice cold Tris-HCl buffer (pH 7.4), and radioactivity was determined by liquid scintillation spectrometry in 5 ml of Optiphase-HiSafe 3, at an efficiency of 40%.
Ki values were determined by nonlinear regression analysis using the equation: log EC50=log [10̂log Ki*(1+RadioligandNM/HotKdNM)], (GraphPad Software Inc., San Diego, Calif.).

[2] = Biodistribution of [11C]HC-242 in anaesthetized mice; type: in vivo, B6C3F1/J mice
Procedure: Animals were anaesthetized with a 1:2:1 mixture of ffm [fentanyl/fluanisone (Hypnorm™; Vetapharma, Leeds, UK), sterile water, midazolam (Dormicum™; Actavis, Harnarfjordur, Iceland)]. The anaesthetic was administered intraperitoneally (11 ml/kg), 5 min prior to radiotracer administration. […] Following the injections, mice were killed by cervical dislocation at 5, 15, 30, or 60 min (n=4/time point). At each time point, blood was obtained by heart punctures and selected organs, including the heart, liver, kidneys, lungs and brain were removed. The brain was further dissected into frontal cortex, olfactory tubercle, striatum, cerebral cortex (bregma 1.70-0.02 mm), entorhinal cortex, hippocampus, hypothalamus, cerebellum, and pons/medulla oblongata. All organs and brain areas were weighed, and recovered radioactivity was determined in a 1282 Compugamma CS (LKB Wallac, Turku, Finland), using 5×10 μl aliquots of the injected formulation as standard. Results are expressed as the differential absorption ratio (DAR): (cpm recovered/g tissue)/(cpm injected/g body weight). Two-way repeated measures ANOVA, followed by Fisher's LSD post-hoc comparisons, was used for analysis of radiotracer uptake in different brain regions (or organs), at different time points.

[3] = molecular target: T2, NR2B site of NMDA receptors (Mus musculus, UniProt P35438+Q01097); assay: Blocking of [11C]HC-242 brain uptake by Ro25-6981 in anaesthetized mice (ex vivo autoradiography); parameters: species or system B6C3F1/J mice; settings: for mean % change: blocked (Ro25-6981) vs unblocked
T2 construct: from tissue; host or cells: mouse brain (sections in vitro; whole brain in vivo)
T2 sequence (Q01097 27-1482, other chains not shown): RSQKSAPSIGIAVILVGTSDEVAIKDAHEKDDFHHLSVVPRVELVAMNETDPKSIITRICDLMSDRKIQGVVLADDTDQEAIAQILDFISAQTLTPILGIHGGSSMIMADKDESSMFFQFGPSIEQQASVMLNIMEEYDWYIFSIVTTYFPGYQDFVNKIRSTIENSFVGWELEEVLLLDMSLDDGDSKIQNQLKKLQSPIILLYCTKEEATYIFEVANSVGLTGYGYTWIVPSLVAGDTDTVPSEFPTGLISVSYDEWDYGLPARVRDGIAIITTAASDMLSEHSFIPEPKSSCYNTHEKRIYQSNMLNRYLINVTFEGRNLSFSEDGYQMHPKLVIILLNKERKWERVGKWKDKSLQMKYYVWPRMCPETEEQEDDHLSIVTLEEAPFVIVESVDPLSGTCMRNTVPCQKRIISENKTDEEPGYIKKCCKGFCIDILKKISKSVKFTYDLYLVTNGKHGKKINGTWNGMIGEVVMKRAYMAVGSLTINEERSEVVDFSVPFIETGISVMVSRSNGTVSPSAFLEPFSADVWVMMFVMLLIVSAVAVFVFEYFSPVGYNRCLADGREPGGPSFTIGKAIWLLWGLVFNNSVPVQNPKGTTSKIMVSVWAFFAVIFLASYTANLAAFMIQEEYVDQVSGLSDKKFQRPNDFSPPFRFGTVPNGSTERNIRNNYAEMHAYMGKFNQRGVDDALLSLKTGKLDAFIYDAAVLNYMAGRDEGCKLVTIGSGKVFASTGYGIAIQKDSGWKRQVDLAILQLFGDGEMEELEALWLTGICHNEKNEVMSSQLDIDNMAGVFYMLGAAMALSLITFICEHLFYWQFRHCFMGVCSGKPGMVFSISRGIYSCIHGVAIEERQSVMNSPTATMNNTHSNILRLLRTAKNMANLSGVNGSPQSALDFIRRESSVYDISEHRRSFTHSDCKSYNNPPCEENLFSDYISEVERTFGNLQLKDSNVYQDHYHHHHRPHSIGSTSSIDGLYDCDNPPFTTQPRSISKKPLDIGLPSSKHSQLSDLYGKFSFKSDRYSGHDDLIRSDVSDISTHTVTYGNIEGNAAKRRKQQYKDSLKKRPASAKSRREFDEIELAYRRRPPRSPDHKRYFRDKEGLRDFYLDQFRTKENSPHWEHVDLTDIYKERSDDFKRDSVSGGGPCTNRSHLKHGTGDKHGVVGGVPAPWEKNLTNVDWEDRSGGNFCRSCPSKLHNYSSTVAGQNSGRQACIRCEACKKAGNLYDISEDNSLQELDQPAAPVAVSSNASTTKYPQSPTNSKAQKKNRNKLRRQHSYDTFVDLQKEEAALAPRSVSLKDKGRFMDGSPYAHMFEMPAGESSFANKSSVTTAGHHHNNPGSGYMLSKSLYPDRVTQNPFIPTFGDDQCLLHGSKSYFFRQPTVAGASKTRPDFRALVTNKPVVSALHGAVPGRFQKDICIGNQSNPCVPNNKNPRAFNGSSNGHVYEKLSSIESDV
Procedure: 15 min after radiotracer injection, mice were killed by cervical dislocation, and the brains were removed, frozen in liquid nitrogen and processed for quantitative autoradiography. 20 μm coronal brain sections from control and Ro25-6981 treated mice were obtained at −21° C. in a Leica CM3050S cryostat (Leica Microsystems, Rijswijk, the Netherlands), and were immediately opposed to phosphor storage screens. The screens were read in a Storm™ 860 Phosphorimager on the following day, and the images obtained were analyzed using ImageQuant TL 8.1 software (GE Healthcare Europe GmbH, Diegem, Belgium). A series of immediately adjacent brain sections were opposed to Kodak Biomax MR-1 film, which was developed after overnight exposure, to obtain high resolution images. […] Analysis of radiotracer uptake in control and blocked mice across different brain regions was performed using two-way ANOVA.

[4] = Determination of Log Doct,7.4; type: physicochemical; settings: 1-octanol / 0.2M phosphate buffer pH 7.4, room temperature, triplicate
Procedure: The distribution of the radio labelled compounds between 1-octanol and 0.2M phosphate buffer (pH=7.4) was measured in triplicate at room temperature. Briefly, 1 mL of a 20 MBq/mL solution of the radio labelled compound in 0.2M phosphate buffer (pH=7.4) was vigorously mixed with 1 mL of 1-octanol for 1 min at room temperature using a vortex. After a settling period of 30 min, five samples of 100 μL were taken from both layers. For determining recovery, 5 samples of 100 μL were taken from the 20 MBq/mL solution. All samples were counted for radioactivity. The Log Doct,7.4 value was calculated according to Log Doct,7.4=^10Log(Aoct/Abuffer), where Aoct and Abuffer represent the average radioactivity counted of the 5 1-octanol and 5 buffer samples, respectively.

[5] = molecular target: T2, NR2B site of NMDA receptors; assay: In vitro autoradiography of [11C]HC-242 on mouse brain sections (non-specific: 1 μM Ro25-6981); type: binding, B6C3F1/J mice
Procedure: 20 μm thick coronal brain sections were thawed from −20° C. to room temperature, pre-washed 2×10 min in assay buffer (50 mM Tris-HCl, pH 7.4), and dried. […] To determine non-specific binding, a series of immediately adjacent brain sections was incubated in the same buffer, in the presence of 1 μM Ro25-6981. Incubations were terminated by 1 min washing into ice-cold assay buffer (pH 7.4), followed by a rapid rinse in ice-cold demi water. The sections were then air dried and opposed overnight to Kodak BioMax MR-1 film, which was developed in Kodak D19 developer and fixed with Kodak rapid fixer (Sigma-Aldrich, Zwijndrecht, the Netherlands). […] Specific binding was quantified following the subtraction of […] binding images.

## FCCOc1cc(F)ccc1-c1cncc(CNC2CCCC2)c1 [Example 7, N-((5-(4-fluoro-2-(2-fluoroethoxyl)phenyl)pyridin-3-yl)methyl)cyclopentanamine dihydrochloride]
[1]
  Ki: 156 ± 21.8 nM

## [11CH3]Oc1cc(F)ccc1-c1cncc(CNC2CCCC2)c1 [[^11C]HC-242, N-((5-(4-fluoro-2-^11C-methoxyphenyl)pyridin-3-yl)methyl)cyclopentanamine]
[2]; blood, 5 min
  DAR: 0.04±0.01
[2]; cerebellum, 15 min
  DAR: 0.14±0.01
[2]; cerebral cortex, 15 min
  DAR: 0.25±0.03
[2]; entorhinal cortex, 15 min
  DAR: 0.62±0.22
[2]; frontal cortex, 15 min
  DAR: 0.26±0.02
[2]; heart, 5 min
  DAR: 0.19±0.04
[2]; hippocampus, 15 min
  DAR: 0.33±0.03
[2]; liver, 5 min
  DAR: 0.15±0.05
[2]; pons/medulla oblongata, 15 min
  DAR: 0.14±0.02
[2]; striatum, 15 min
  DAR: 0.24±0.03
[3]; Experiment No 1, [11C]HC-242 23.7 μM at t0
  mean % change: −22.5%
[3]; Experiment No 2, [11C]HC-242 2.6 μM at t0
  mean % change: −21.9%
[3]; Experiment No 3, [11C]HC-242 14.6 μM at t0
  mean % change: 33.3%
[3]; Ro25-6981 10.0 mg/kg i.p. pretreatment, across all brain regions, pairs showing decrease
  mean decrease in radioactivity uptake induced by Ro25-6981: 22.3±1.9%
[3]; Ro25-6981 10.0 mg/kg i.p. pretreatment, across all brain regions, pairs showing increase
  mean increase in radioactivity uptake induced by Ro25-6981: 29.4±4.2%
[4]
  logD: 2.14 ± 0.02
[5]; across all brain regions analyzed
  mean percentage of specific binding: 24.0±3.5%
[5]; cerebral cortex, hippocampus, olfactory tubercle, striatum
  Specific labelling: high
[5]; olfactory tubercle
  percentage of specific binding: 39.6±10.4%
[5]; subthalamic brain regions
  Specific labelling: absent
[5]; thalamus
  Specific labelling: low
  percentage of specific binding: 3.3±2.1%

## Oc1cc(F)ccc1-c1cncc(CNC2CCCC2)c1 [Example 5, 2-(5-((cyclopentylamino)methyl)pyridin-3-yl)-5-fluorophenol]
[1]
  Ki: 1300 ± 600 nM

## FCOc1cc(F)ccc1-c1cncc(CNC2CCCC2)c1 [Example 6, N-((5-(4-fluoro-2-(fluoromethoxy)phenyl)pyridin-3-yl)methyl)cyclopentanamine dihydrochloride]
[1]
  Ki: 15.4 ± 1.3 nM

## Fc1ccc(-c2cncc(CNC3CCCC3)c2)cc1 [Example 10, N-((5-(4-fluorophenyl)pyridin-3-yl)methyl)cyclopentanamine dihydrochloride]
[1]
  Ki: 3.3 ± 1.9 nM

## COc1cc(F)ccc1-c1cccc(CNCC2CC2)c1 [Example 4, 1-cyclopropyl-N-((4′-fluoro-2′-methoxy-[1,1′-biphenyl]-3-yl)methyl)methanamine hydrochloride]
[1]
  Ki: 67.7 ± 8.1 nM

## Fc1ccc(-c2cccc(CNC3CCCC3)c2)cc1 [Example 11, N-((4′-fluoro-[1,1′-biphenyl]-3-yl)methyl)cyclopentanamine hydrochloride]
[1]
  Ki: 13.1 ± 1.8 nM

## Fc1ccc(-c2cncc(CNCC3CC3)c2)cc1 [Example 12, 1-cyclopropyl-N-((5-(4-fluorophenyl)pyridin-3-yl)methyl)methanamine dihydrochloride]
[1]
  Ki: 2.9 ± 0.3 nM

## COc1cc(F)ccc1-c1cncc(CNCC2CC2)c1 [Example 2, 1-cyclopropyl-N-((5-(4-fluoro-2-methoxyphenyl)pyridin-3-yl)methyl)methanamine dihydrochloride]
[1]
  Ki: 8.7 ± 1.2 nM
